Measurements reported in ChEMBL document CHEMBL1201862, “PubChem BioAssay data set” (2004).
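Growth conditions: 96-well plates. Treatment: test compound, 48 hours, 5 concentrations. Analysis: linear interpolation between bracketing concentrations; unreached endpoints set to highest concentration. GI50: concentration for 50% inhibition of growth.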 The source made the active and inactive calls. Rule as the data show it: active = GI50 up to about 1.1 µM and inactive = higher.

What was measured:
Experiment in all cases: NCI-60 cell line screen, 48 h
A498 = system: A498
A549 = system: A549
CAKI-1 = system: CAKI-1
CCRF-CEM = system: CCRF-CEM
HCC 2998 = system: HCC 2998
HCT-116 = system: HCT-116
HCT-15 = system: HCT-15
HL-60 = system: HL-60
HOP-92 = system: HOP-92
Hs-578T = system: Hs-578T
IGROV-1 = system: IGROV-1
LOX IMVI = system: LOX IMVI
MCF7 = system: MCF7
MDA-MB-435 = system: MDA-MB-435
MDA-N = system: MDA-N
MOLT-4 = system: MOLT-4
NCI-H226 = system: NCI-H226
NCI-H23 = system: NCI-H23
NCI-H460 = system: NCI-H460
NCI-H522 = system: NCI-H522
OVCAR-4 = system: OVCAR-4
PC-3 = system: PC-3
RPMI-8226 = system: RPMI-8226
SF-268 = system: SF-268
SF-539 = system: SF-539
SK-MEL-5 = system: SK-MEL-5
SNB-19 = system: SNB-19
T47D = system: T47D
TK-10 = system: TK-10
UACC-62 = system: UACC-62
786-0 = system: 786-0
ACHN = system: ACHN
COLO 205 = system: COLO 205
DU-145 = system: DU-145
EKVX = system: EKVX
HOP-62 = system: HOP-62
HT-29 = system: HT-29
K562 = system: K562
KM12 = system: KM12
M14 = system: M14
MDA-MB-231 = system: MDA-MB-231
Malme-3M = system: Malme-3M
NCI/ADR-RES = system: NCI/ADR-RES
OVCAR-3 = system: OVCAR-3
OVCAR-5 = system: OVCAR-5
OVCAR-8 = system: OVCAR-8
SF-295 = system: SF-295
SK-MEL-28 = system: SK-MEL-28
SK-MEL-2 = system: SK-MEL-2
SK-OV-3 = system: SK-OV-3
SN12C = system: SN12C
SNB-75 = system: SNB-75
SR = system: SR
SW-620 = system: SW-620
U-251 = system: U-251
UACC-257 = system: UACC-257
UO-31 = system: UO-31

CC(=O)O[C@H]1C(=O)[C@@]2(C)C(C(OC(=O)c3ccccc3)[C@]3(O)CC(OC(=O)[C@H](OC(=O)CCC(=O)O)C(NC(=O)c4ccccc4)c4ccccc4)C(C)=C1C3(C)C)C1(OC(C)=O)COC1C[C@@H]2O (stereo partly drawn)
GI50 (A498): < 0.0118 µM (active) | GI50 (A549): 0.0366 µM (active) | GI50 (CAKI-1): 5.3 µM (inactive) | GI50 (CCRF-CEM): < 0.01 µM (active) | GI50 (HCC 2998): 0.0302 µM (active) | GI50 (HCT-116): < 0.01 µM (active) | GI50 (HCT-15): 0.995 µM | GI50 (HL-60): < 0.01 µM (active) | GI50 (HOP-92): 0.656 µM (active) | GI50 (Hs-578T): < 0.0175 µM (active) | GI50 (IGROV-1): < 0.0119 µM (active) | GI50 (LOX IMVI): < 0.0105 µM (active) | GI50 (MCF7): < 0.01 µM (active) | GI50 (MDA-MB-435): < 0.01 µM (active) | GI50 (MDA-N): < 0.01 µM (active) | GI50 (MOLT-4): < 0.0153 µM (active) | GI50 (NCI-H226): 0.0122 µM (active) | GI50 (NCI-H23): 0.0193 µM (active) | GI50 (NCI-H460): < 0.0132 µM (active) | GI50 (NCI-H522): < 0.01 µM (active) | GI50 (OVCAR-4): 31.8 µM (inactive) | GI50 (PC-3): < 0.0128 µM (active) | GI50 (RPMI-8226): < 0.01 µM (active) | GI50 (SF-268): 0.0252 µM (active) | GI50 (SF-539): < 0.01 µM (active) | GI50 (SK-MEL-5): < 0.0159 µM (active) | GI50 (SNB-19): 0.0506 µM (active) | GI50 (T47D): 0.0272 µM (active) | GI50 (TK-10): 0.136 µM (active) | GI50 (UACC-62): < 0.0113 µM (active)

CC1CN=C(Nc2ccc(S(N)(=O)=O)cc2)S1 (stereo not drawn)
GI50 (786-0): > 100 µM (inactive) | GI50 (A498): > 100 µM (inactive) | GI50 (A549): > 100 µM (inactive) | GI50 (ACHN): > 100 µM (inactive) | GI50 (CAKI-1): > 100 µM (inactive) | GI50 (CCRF-CEM): > 100 µM (inactive) | GI50 (COLO 205): > 100 µM (inactive) | GI50 (DU-145): > 100 µM (inactive) | GI50 (EKVX): > 100 µM (inactive) | GI50 (HCC 2998): > 100 µM (inactive) | GI50 (HCT-116): > 100 µM (inactive) | GI50 (HCT-15): > 100 µM | GI50 (HL-60): > 100 µM (inactive) | GI50 (HOP-62): > 100 µM (inactive) | GI50 (HOP-92): > 100 µM (inactive) | GI50 (HT-29): > 100 µM (inactive) | GI50 (Hs-578T): > 100 µM (inactive) | GI50 (IGROV-1): > 100 µM (inactive) | GI50 (K562): > 100 µM (inactive) | GI50 (KM12): > 100 µM (inactive) | GI50 (LOX IMVI): > 10 µM (inactive) | GI50 (M14): > 100 µM (inactive) | GI50 (MCF7): 78.5 µM (inactive) | GI50 (MDA-MB-231): > 100 µM (inactive) | GI50 (MDA-N): > 10 µM (inactive) | GI50 (MOLT-4): > 100 µM (inactive) | GI50 (Malme-3M): > 100 µM (inactive) | GI50 (NCI-H23): > 100 µM (inactive) | GI50 (NCI-H460): > 100 µM (inactive) | GI50 (NCI/ADR-RES): > 100 µM (inactive) | GI50 (OVCAR-3): > 100 µM (inactive) | GI50 (OVCAR-4): > 100 µM (inactive) | GI50 (OVCAR-5): > 100 µM (inactive) | GI50 (OVCAR-8): > 100 µM (inactive) | GI50 (PC-3): > 10 µM (inactive) | GI50 (RPMI-8226): > 100 µM (inactive) | GI50 (SF-268): > 100 µM (inactive) | GI50 (SF-295): > 100 µM (inactive) | GI50 (SF-539): > 100 µM (inactive) | GI50 (SK-MEL-28): > 100 µM (inactive) | GI50 (SK-MEL-2): > 100 µM (inactive) | GI50 (SK-MEL-5): > 100 µM (inactive) | GI50 (SK-OV-3): > 100 µM (inactive) | GI50 (SN12C): > 100 µM (inactive) | GI50 (SNB-19): > 100 µM (inactive) | GI50 (SNB-75): > 100 µM (inactive) | GI50 (SR): > 100 µM (inactive) | GI50 (SW-620): > 100 µM (inactive) | GI50 (T47D): 60.1 µM (inactive) | GI50 (TK-10): > 100 µM (inactive) | GI50 (U-251): > 100 µM (inactive) | GI50 (UACC-257): > 100 µM (inactive) | GI50 (UO-31): 39.4 µM (inactive)
